Assay [1] has as its target T1, Thyroid hormone receptor beta (Homo sapiens, UniProt P10828).
T1 sequence (P10828 whole entry): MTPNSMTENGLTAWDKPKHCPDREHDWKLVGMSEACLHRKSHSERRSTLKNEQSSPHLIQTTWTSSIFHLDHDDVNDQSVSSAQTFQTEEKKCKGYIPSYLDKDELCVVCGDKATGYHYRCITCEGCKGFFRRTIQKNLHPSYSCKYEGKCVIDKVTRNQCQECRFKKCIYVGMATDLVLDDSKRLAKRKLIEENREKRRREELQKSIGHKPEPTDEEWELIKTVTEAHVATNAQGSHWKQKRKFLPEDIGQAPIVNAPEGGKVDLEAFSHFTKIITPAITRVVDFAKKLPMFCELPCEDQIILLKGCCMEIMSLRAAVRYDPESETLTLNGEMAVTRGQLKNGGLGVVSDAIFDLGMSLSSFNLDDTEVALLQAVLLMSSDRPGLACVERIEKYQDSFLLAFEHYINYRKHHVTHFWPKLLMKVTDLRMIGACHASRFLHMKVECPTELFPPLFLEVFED
Nature of the assay: Inhibition of TRbeta-LBD (unknown origin) interaction to texas red-labeled SRC2-2 peptide by fluorescence polarization assay. Background: Polarisation of emitted light reports the rotation of a fluorescent probe.

The next assay concerns the target T2, Vitamin D3 receptor (Homo sapiens, UniProt P11473).
T2 sequence (P11473 whole entry): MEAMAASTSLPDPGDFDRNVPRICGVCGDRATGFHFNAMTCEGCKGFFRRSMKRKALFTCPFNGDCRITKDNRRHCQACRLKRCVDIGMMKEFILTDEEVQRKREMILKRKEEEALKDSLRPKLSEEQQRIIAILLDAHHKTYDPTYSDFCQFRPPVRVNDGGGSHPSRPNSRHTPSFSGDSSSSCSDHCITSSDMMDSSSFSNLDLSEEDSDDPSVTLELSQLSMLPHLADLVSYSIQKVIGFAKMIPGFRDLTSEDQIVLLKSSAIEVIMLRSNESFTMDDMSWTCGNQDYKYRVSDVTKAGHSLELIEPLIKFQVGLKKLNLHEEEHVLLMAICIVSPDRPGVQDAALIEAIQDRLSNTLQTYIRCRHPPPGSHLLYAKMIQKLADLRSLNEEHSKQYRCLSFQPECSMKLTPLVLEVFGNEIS
The assay can be described thus: Inhibition of VDR (unknown origin) interaction to SRC2-3 peptide by fluorescence polarization assay.

The target of assay [2] is T3, Thyroid hormone receptor alpha (Homo sapiens, UniProt P10827).
T3 sequence (P10827 whole entry): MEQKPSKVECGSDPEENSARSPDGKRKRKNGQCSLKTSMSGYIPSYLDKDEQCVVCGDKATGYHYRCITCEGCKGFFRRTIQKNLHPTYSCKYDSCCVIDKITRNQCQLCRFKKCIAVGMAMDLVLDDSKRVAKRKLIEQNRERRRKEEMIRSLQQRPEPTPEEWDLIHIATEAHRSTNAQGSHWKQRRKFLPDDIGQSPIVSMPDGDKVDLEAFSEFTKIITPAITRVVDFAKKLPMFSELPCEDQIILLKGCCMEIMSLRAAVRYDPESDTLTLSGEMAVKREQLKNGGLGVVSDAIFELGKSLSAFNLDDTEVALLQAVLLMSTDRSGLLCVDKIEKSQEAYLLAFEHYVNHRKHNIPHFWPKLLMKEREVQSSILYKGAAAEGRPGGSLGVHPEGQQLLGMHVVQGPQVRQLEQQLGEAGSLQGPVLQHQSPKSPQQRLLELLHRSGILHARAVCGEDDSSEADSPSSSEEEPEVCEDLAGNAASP
The assay can be described thus: Inhibition of TRalpha-LBD (unknown origin) interaction to texas red-labeled SRC2-2 peptide by fluorescence polarization assay.

For the next assay, the system named is HepG2. Nature of the assay: Cytotoxicity against human HepG2 cells assessed as ATP level after 72 hrs by CellTiter-Glo assay. In kind it is cell-based. The following applies: HepG2, 72 h.

pEC50, pIC50: −log10 of the molar value.

Usually pIC50 stands for the IC50 on a negative log10 scale, so that one unit is a factor of ten. The pEC50 is the EC50 on a negative log10 scale, so that one unit is a factor of ten.

On to `CC1Cc2ccccc2N1C(=O)CCNC(=O)c1ccc(S(C)(=O)=O)c([N+](=O)[O-])c1` (stereo not given), for which the pIC50 in assay [1] is less than 4.22; at Vitamin D3 receptor, 4.26; in assay [2], less than 4.22. Further, the pEC50 in the assay on HepG2 was less than 4.57.
For the compound `CN(CC(=O)N1CCN(c2ccccc2F)CC1)C(=O)c1ccc(S(C)(=O)=O)c([N+](=O)[O-])c1`, the pIC50 (in assay [1]; against Vitamin D3 receptor; in assay [2]) was less than 4.22 in each case. In addition, the pEC50 in the assay on HepG2 is 4.99.
As to `CN(Cc1cccc(F)c1)C(=O)CCNC(=O)c1ccc(S(C)(=O)=O)c([N+](=O)[O-])c1`, the values for the pIC50 (in assay [1]; against Vitamin D3 receptor; in assay [2]) were less than 4.22, less than 4.22 and 4.54, respectively. Also, the pEC50 in the assay on HepG2 was 4.95.
In the case of `CN(CC(=O)N1CCc2ccccc2C1)C(=O)c1ccc(S(C)(=O)=O)c([N+](=O)[O-])c1`, the pIC50 (in assay [1]; at Vitamin D3 receptor; in assay [2]) was less than 4.22 throughout. Also, in the assay on HepG2, the pEC50 is less than 4.57.
Take `CN(Cc1ccccc1)C(=O)CCNC(=O)c1ccc(S(C)(=O)=O)c([N+](=O)[O-])c1`: the pIC50 (in assay [1]; against Vitamin D3 receptor; in assay [2]) was less than 4.22 throughout. Also, the pEC50 with HepG2 is less than 4.57.
On to `CN(CC(=O)N1CCC(c2ccccc2)CC1)C(=O)c1ccc(S(C)(=O)=O)c([N+](=O)[O-])c1`, for which the negative logarithm of the IC50 (pIC50) (in assay [1]; on Vitamin D3 receptor; in assay [2]) was less than 4.22 throughout. The pEC50 in the assay with HepG2 was less than 4.57.
Consider `CN(Cc1ccccc1F)C(=O)CN(C)C(=O)c1ccc(S(C)(=O)=O)c([N+](=O)[O-])c1`, for which the pIC50 (in assay [1]; against Vitamin D3 receptor; in assay [2]) was less than 4.22 throughout. In addition, the pEC50 with HepG2 is less than 4.57.
With `CS(=O)(=O)c1ccc(C(=O)N2CCC(C(=O)N3CCN(c4ccccc4F)CC3)CC2)cc1[N+](=O)[O-]`, the pIC50 (in assay [1]; on Vitamin D3 receptor; in assay [2]) was less than 4.22 in each case. Further, the pEC50 with HepG2 is less than 4.57.
`CN(Cc1cccc(F)c1)C(=O)CNC(=O)c1ccc(S(C)(=O)=O)c([N+](=O)[O-])c1`: the negative logarithm of the IC50 (pIC50) (in assay [1]; against Vitamin D3 receptor; in assay [2]) was less than 4.22 throughout. In addition, the pEC50 in the assay on HepG2 was less than 4.57.
For the compound `CS(=O)(=O)c1ccc(C(=O)N2CCC(C(=O)N(Cc3ccccc3)Cc3ccccc3)CC2)cc1[N+](=O)[O-]`, the negative-log IC50 (pIC50) (in assay [1]; on Vitamin D3 receptor; in assay [2]) was less than 4.22 each time. Moreover, the pEC50 with HepG2 is less than 4.57.
Consider `CN(C(=O)CCCNC(=O)c1ccc(S(C)(=O)=O)c([N+](=O)[O-])c1)c1ccccc1`, for which the pIC50 (in assay [1]; against Vitamin D3 receptor; in assay [2]) was less than 4.22 throughout. Further, in the assay on HepG2, the pEC50 was less than 4.57.
Regarding `CN(Cc1ccccc1)C(=O)C1CCN(C(=O)c2ccc(S(C)(=O)=O)c([N+](=O)[O-])c2)CC1`, the pIC50 (in assay [1]; against Vitamin D3 receptor; in assay [2]) was less than 4.22 throughout. Further, the pEC50 with HepG2 is less than 4.57.
Consider `CS(=O)(=O)c1ccc(C(=O)NCC(=O)N2CCN(c3ccccc3)CC2)cc1[N+](=O)[O-]`, for which the negative-log IC50 (pIC50) (in assay [1]; at Vitamin D3 receptor; in assay [2]) was less than 4.22 in each case. The pEC50 in the assay on HepG2 was less than 4.57.
As for `CS(=O)(=O)c1ccc(C(=O)NCCC(=O)N2CCN(c3ccc(F)cc3)CC2)cc1[N+](=O)[O-]`, the negative logarithm of the IC50 (pIC50) (in assay [1]; against Vitamin D3 receptor; in assay [2]) was less than 4.22 throughout. Further, the pEC50 in the assay on HepG2 was less than 4.57.
Turning to `CS(=O)(=O)c1ccc(C(=O)N2CCC(C(=O)N3CCN(c4ccc(F)cc4)CC3)CC2)cc1[N+](=O)[O-]`, the pIC50 (in assay [1]; against Vitamin D3 receptor; in assay [2]) was less than 4.22 throughout. Moreover, in the assay with HepG2, the pEC50 was less than 4.57.
`Cc1ccc(N2CCN(C(=O)CCCNC(=O)c3ccc(S(C)(=O)=O)c([N+](=O)[O-])c3)CC2)cc1`: the pIC50 (in assay [1]; at Vitamin D3 receptor; in assay [2]) was less than 4.22 each time. The negative logarithm of the EC50 (pEC50) with HepG2 is less than 4.57.
`CN(CC(=O)N1CCCCC1)C(=O)c1ccc(S(C)(=O)=O)c([N+](=O)[O-])c1`: the negative logarithm of the IC50 (pIC50) (in assay [1]; against Vitamin D3 receptor; in assay [2]) was less than 4.22 throughout. In the assay with HepG2, the pEC50 was 4.95.
Consider `CN(Cc1ccccc1F)C(=O)CCNC(=O)c1ccc(S(C)(=O)=O)c([N+](=O)[O-])c1`, for which the pIC50 (in assay [1]; against Vitamin D3 receptor; in assay [2]) was less than 4.22 in each case. Moreover, the pEC50 in the assay on HepG2 was less than 4.57.
Consider `CS(=O)(=O)c1ccc(C(=O)NCCC(=O)N(Cc2ccccc2)Cc2ccccc2)cc1[N+](=O)[O-]`, for which the pIC50 was less than 4.22 in assay [1], 4.42 on Vitamin D3 receptor and 4.48 in assay [2]. Further, the negative-log EC50 (pEC50) in the assay with HepG2 was less than 4.57.
For `CS(=O)(=O)c1ccc(C(=O)NCCC(=O)N2CCN(c3ccccc3)CC2)cc1[N+](=O)[O-]` the same measures were less than 4.22, less than 4.22, less than 4.22 and less than 4.57.
For `CC1Cc2ccccc2N1C(=O)C1CCN(C(=O)c2ccc(S(C)(=O)=O)c([N+](=O)[O-])c2)CC1` (stereo not given) the same measures were less than 4.22, less than 4.22, less than 4.22 and less than 4.57.
As to `CS(=O)(=O)c1ccc(C(=O)NCCC(=O)N2CCc3ccccc3C2)cc1[N+](=O)[O-]`, the pIC50 (in assay [1]; against Vitamin D3 receptor; in assay [2]) was less than 4.22 in each case. In addition, the pEC50 with HepG2 is less than 4.57.
Turning to `CN(CC(=O)N1Cc2ccccc2C1)C(=O)c1ccc(S(C)(=O)=O)c([N+](=O)[O-])c1`, the pIC50 (in assay [1]; at Vitamin D3 receptor; in assay [2]) was less than 4.22 throughout. For the same compound, the pEC50 with HepG2 is less than 4.57.
In the case of `CS(=O)(=O)c1ccc(C(=O)NCCC(=O)N2CCCc3ccccc32)cc1[N+](=O)[O-]`, the pIC50 (in assay [1]; against Vitamin D3 receptor; in assay [2]) was less than 4.22 throughout. Besides, the pEC50 with HepG2 is 4.98.
With `CC1Cc2ccccc2N1C(=O)CN(C)C(=O)c1ccc(S(C)(=O)=O)c([N+](=O)[O-])c1` (stereo not given), the pIC50 (in assay [1]; against Vitamin D3 receptor; in assay [2]) was less than 4.22 in each case. The pEC50 with HepG2 was 5.26.
As for `CN(C(=O)CNC(=O)c1ccc(S(C)(=O)=O)c([N+](=O)[O-])c1)c1ccccc1`, the pIC50 is 5.24 in assay [1], less than 4.22 against Vitamin D3 receptor and 5.38 in assay [2]. Besides, the pEC50 in the assay with HepG2 is less than 4.57.
Taken in the same sequence, the figures for `CS(=O)(=O)c1ccc(C(=O)NCC(=O)NC23CC4CC(CC(C4)C2)C3)cc1[N+](=O)[O-]` were 4.80, less than 4.22, 5.02 and less than 4.57.
For `CC1CCN(C(=O)CN(C)C(=O)c2ccc(S(C)(=O)=O)c([N+](=O)[O-])c2)CC1` the same measures were less than 4.22, less than 4.22, less than 4.22 and less than 4.57.
Taken in the same sequence, the figures for `CS(=O)(=O)c1ccc(C(=O)NCC(=O)N2CCCCC2)cc1[N+](=O)[O-]` were less than 4.22, less than 4.22, 4.36 and 4.85.
As for `CC(C)N(C(=O)CNC(=O)c1ccc(S(C)(=O)=O)c([N+](=O)[O-])c1)C(C)C`, the negative-log IC50 (pIC50) (in assay [1]; against Vitamin D3 receptor; in assay [2]) was less than 4.22 in each case. In addition, the pEC50 with HepG2 is less than 4.57.

(Values after ChEMBL document CHEMBL2346513, “Synthesis and evaluation of methylsulfonylnitrobenzamides (MSNBAs) as inhibitors of the thyroid hormone receptor-coactivator interaction” (Bioorg Med Chem Lett, 2013).)
